These results are taken from US12264159B2, “Functionalized heterocycles as antiviral agents” (Enanta Pharmaceuticals, Inc., priority 2018, dated 2025).

pEC50: −log10 of the molar value.

For one series, the system named is HBV in 2.2.15 cells. The experiment in a line: 2.2.15 cells: viral product in cell lysates quantified via quantitative real time PCR. Conditions: Hepatitis B virus, 120 h, day 5 post treatment, 50% reduction of viral product vs no drug controls, readout (qPCR, HBsAg or HBeAg) not specified for the column. In kind it is cell-based, hepatitis B virus (HBV). A digest of the protocol: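 2.2.15 cells (35,000/well, DMEM/F12, 10% FBS, G418) were treated with 5-fold serial compound dilutions, 0.5% DMSO final. After 5 days, lysates were quantified by qPCR, or supernatant HBsAg/HBeAg by ELISA; EC50 is the concentration giving 50% reduction versus no-drug controls.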
For orientation: Real-time PCR tracks product formation cycle by cycle.

A short description of series [1]: Compound induced cellular toxicity in HepG2 cells, ATPlite 1Step. In kind it is cell-based. Conditions: human, three days exposure, 50% reduction of total ATP vs no drug controls. As for the experimental part:
At day 3, post seeding cells are treated with ATPlite 1Step according to the manufacturer's instructions.
Background: ATP-based viability assays read luminescence as a measure of living cells.

Regarding `CC(C)(C)[C@@H]1Cn2nc(-c3c(O)cccc3F)cc2-c2cc(=O)c(C(=O)O)cn21` [Example 47, (R)-6-(tert-butyl)-2-(2-fluoro-6-hydroxyphenyl)-10-oxo-5,6-dihydro-10H-pyrazolo[1,5-a]pyrido[2,2-c]pyrazine-12-carboxylic acid], the pEC50 (usually the negative decadic logarithm of the EC50, by convention in mol/L) in the series with HBV in 2.2.15 cells is greater than 7.00. For the same compound, the CC50 – broadly, the concentration giving 50% cytotoxicity – at 3 days in series [1] is greater than 25000 nM.
Taken in the same sequence, the figures for `CC(C)(C)[C@@H]1Cn2nc(-c3ccccc3OC(F)F)cc2-c2cc(=O)c(C(=O)O)cn21` [Example 68, (R)-6-(tert-butyl)-2-(2-(difluoromethoxy)phenyl)-10-oxo-5,6-dihydro-10H-pyrazolo[1,5-a]pyrido[2,2-c]pyrazine-12-carboxylic acid] were greater than 7.00 and greater than 25000 nM.
Taken in the same sequence, the figures for `CNc1ncc(-c2cc3n(n2)C[C@@H](C(C)(C)C)n2cc(C(=O)O)c(=O)cc2-3)cn1` [Example 14, (R)-6-(tert-butyl)-2-(2-(methylamino)pyrimidin-5-yl)-10-oxo-5,6-dihydro-10H-pyrazolo[1,5-a]pyrido[2,2-c]pyrazine-12-carboxylic acid] were 6.00 to 6.70 and greater than 25000 nM.
Taken in the same sequence, the figures for `CC(C)[C@@H]1Cn2nc(-c3ccccc3F)c(-c3ccccc3F)c2-c2cc(=O)c(C(=O)O)cn21` [Example 171, (R)-1,2-bis(2-fluorophenyl)-6-isopropyl-10-oxo-5,6-dihydro-10H-pyrazolo[1,5-a]pyrido[2,1-c]pyrazine-9-carboxylic acid] were greater than 7.00 and greater than 25000 nM.
In the case of `CC(C)(C)[C@@H]1Cn2nc(-c3ccoc3)c(-c3ccoc3)c2-c2cc(=O)c(C(=O)O)cn21` [Example 96, (R)-6-(tert-butyl)-1,2-di(furan-3-yl)-10-oxo-5,6-dihydro-10H-pyrazolo[1,5-a]pyrido[2,1-c]pyrazine-9-carboxylic acid], the pEC50 in the series on HBV in 2.2.15 cells was greater than 7.00. Also, the CC50 at 3 days in series [1] was greater than 25000 nM.
`COc1ccc(OC(F)(F)F)cc1-c1cc2n(n1)C[C@@H](C(C)(C)C)n1cc(C(=O)O)c(=O)cc1-2` [Example 33, (R)-6-(tert-butyl)-2-(2-methoxy-5-(trifluoromethoxy)phenyl)-10-oxo-5,6-dihydro-10H-pyrazolo[1,5-a]pyrido[2,2-c]pyrazine-12-carboxylic acid] had a pEC50 with HBV in 2.2.15 cells greater than 7.00. This compound returned a CC50 at 3 days in series [1] greater than 25000 nM.
In the same order, the values of `CC(C)(C)[C@@H]1Cn2nc(C3CC3)c(-c3cc(F)ccc3F)c2-c2cc(=O)c(C(=O)O)cn21` [Example 155, (R)-6-(tert-butyl)-2-cyclopropyl-1-(2,5-difluorophenyl)-10-oxo-5,6-dihydro-10H-pyrazolo[1,5-a]pyrido[2,1-c]pyrazine-9-carboxylic acid] are greater than 7.00 and greater than 25000 nM.
Compound `COc1cccc(-c2cc3n(n2)C[C@@H](C(C)(C)C)n2cc(C(=O)O)c(=O)cc2-3)c1C#N` [Example 45, (R)-6-(tert-butyl)-2-(2-cyano-3-methoxyphenyl)-10-oxo-5,6-dihydro-10H-pyrazolo[1,5-a]pyrido[2,2-c]pyrazine-12-carboxylic acid] had a pEC50 in the series with HBV in 2.2.15 cells greater than 7.00. In addition, in series [1], the CC50 at 3 days is greater than 25000 nM.
Taken in the same sequence, the figures for `CC(C)(C)[C@@H]1Cn2ncc(-c3ccc4c(c3F)OCO4)c2-c2cc(=O)c(C(=O)O)cn21` [Example 122, (R)-6-(tert-butyl)-1-(4-fluorobenzo[d][1,3]dioxol-5-yl)-10-oxo-5,6-dihydro-10H-pyrazolo[1,5-a]pyrido[2,1-c]pyrazine-9-carboxylic acid] were greater than 7.00 and greater than 25000 nM.
In the same order, the values of `CC(C)(C)[C@@H]1Cn2nc(-c3cccc4c3OC(F)(F)O4)cc2-c2cc(=O)c(C(=O)O)cn21` [Example 21, (R)-6-(tert-butyl)-2-(2,2-difluorobenzo[d][1,3]dioxol-4-yl)-10-oxo-5,6-dihydro-10H-pyrazolo[1,5-a]pyrido[2,2-c]pyrazine-12-carboxylic acid] are greater than 7.00 and greater than 25000 nM.
In turn, `CC(C)(C)[C@@H]1Cn2nc(-c3cnc(NC4CC4)nc3)cc2-c2cc(=O)c(C(=O)O)cn21` [Example 15, (R)-6-(tert-butyl)-2-(2-(cyclopropylamino)pyrimidin-5-yl)-10-oxo-5,6-dihydro-10H-pyrazolo[1,5-a]pyrido[2,2-c]pyrazine-12-carboxylic acid] gave a negative logarithm of the EC50 (pEC50) with HBV in 2.2.15 cells greater than 7.00. Moreover, the CC50 at 3 days in series [1] was greater than 25000 nM.
Taken in the same sequence, the figures for `CC(C)(C)[C@@H]1Cn2ncc(-c3cccc(F)c3)c2-c2cc(=O)c(C(=O)O)cn21` [Example 103, (R)-6-(tert-butyl)-1-(3-fluorophenyl)-10-oxo-5,6-dihydro-10H-pyrazolo[1,5-a]pyrido[2,1-c]pyrazine-9-carboxylic acid] were greater than 7.00 and greater than 25000 nM.
Taken in the same sequence, the figures for `CC(C)(C)[C@@H]1Cn2nc(-c3ccccc3OC3CCCC3)cc2-c2cc(=O)c(C(=O)O)cn21` [Example 76, (R)-6-(tert-butyl)-2-(2-(cyclopentyloxy)phenyl)-10-oxo-5,6-dihydro-10H-pyrazolo[1,5-a]pyrido[2,2-c]pyrazine-12-carboxylic acid] were greater than 7.00 and greater than 25000 nM.
Taken in the same sequence, the figures for `CC(C)(C)[C@@H]1Cn2nc(-c3cc(F)ccc3F)cc2-c2cc(=O)c(C(=O)O)cn21` [Example 61, (R)-6-(tert-butyl)-2-(2,5-difluorophenyl)-10-oxo-5,6-dihydro-10H-pyrazolo[1,5-a]pyrido[2,2-c]pyrazine-12-carboxylic acid] were greater than 7.00 and greater than 25000 nM.
In turn, `CC(C)(C)[C@@H]1Cn2nc(-c3ccc(F)cc3)c(-c3ccccc3)c2-c2cc(=O)c(C(=O)O)cn21` [Example 166, (R)-6-(tert-butyl)-2-(4-fluorophenyl)-10-oxo-1-phenyl-5,6-dihydro-10H-pyrazolo[1,5-a]pyrido[2,1-c]pyrazine-9-carboxylic acid] gave a pEC50 in the series with HBV in 2.2.15 cells greater than 7.00. For the same compound, the CC50 at 3 days in series [1] is greater than 25000 nM.
`Cc1cc(-c2cc3n(n2)C[C@@H](C(C)(C)C)n2cc(C(=O)O)c(=O)cc2-3)c(F)cc1F` [Example 39, (R)-6-(tert-butyl)-2-(2,4-difluoro-5-methylphenyl)-10-oxo-5,6-dihydro-10H-pyrazolo[1,5-a]pyrido[2,2-c]pyrazine-12-carboxylic acid] gave a pEC50 in the series on HBV in 2.2.15 cells greater than 7.00. Moreover, in series [1], the CC50 at 3 days was greater than 25000 nM.
Consider `CC(C)(C)[C@@H]1Cn2nc(-c3cccc4cn[nH]c34)cc2-c2cc(=O)c(C(=O)O)cn21` [Example 67, (R)-6-(tert-butyl)-2-(1H-indazol-7-yl)-10-oxo-5,6-dihydro-10H-pyrazolo[1,5-a]pyrido[2,2-c]pyrazine-12-carboxylic acid], for which, in the series with HBV in 2.2.15 cells, the pEC50 is greater than 7.00. In addition, the CC50 at 3 days in series [1] was greater than 25000 nM.
Taken in the same sequence, the figures for `CC(C)[C@@H]1Cn2nc(C3CC3)c(-c3cccc(F)c3)c2-c2cc(=O)c(C(=O)O)cn21` [Example 134, (R)-2-cyclopropyl-1-(3-fluorophenyl)-6-isopropyl-10-oxo-5,6-dihydro-10H-pyrazolo[1,5-a]pyrido[2,1-c]pyrazine-9-carboxylic acid] were greater than 7.00 and greater than 25000 nM.
